Values belong to the molecule of their own block, whether it stands above or below them. Active and inactive are the calls of the source. The calls are words filed in the database; no cut-off is given here.
Experiments:
Huh-7 = test: cells; conditions: Homo sapiens, Huh-7, 72 h
Description: Cytotoxicity against human Huh-7 cells assessed as inhibition of cell growth incubated for 72 hrs by CellTiter-Glo assay

[1] = biological target: Fibroblast growth factor receptor 4 (Homo sapiens, UniProt P22455)
Description: Inhibition of FGFR4 (unknown origin) using TK as substrate incubated for 1 hr in presence of biotin/ATP by HTRF assay

in vitro [2] = conditions: human, liver microsomes
Description: Metabolic stability in human liver microsomes assessed as intrinsic clearance pretreated for 5 mins followed by NADPH addition and measured for 45 mins by LC/MS analysis

in vitro [3] = conditions: mouse, liver microsomes
Description: Metabolic stability in mouse liver microsomes assessed as half life pretreated for 5 mins followed by NADPH addition and measured for 45 mins by LC/MS analysis

BaF3 [4] = test: Cytotoxicity against mouse BaF3 cells expressing wild type TEL-fused FGFR4 assessed as inhibition of cell growth incubated for 72 hrs by CCK-8 assay; assay type: functional, cell-based; conditions: BaF3, 72 h
BaF3 [5] = test: Cytotoxicity against mouse BaF3 cells expressing TEL-fused FGFR4 V550L mutant assessed as inhibition of cell growth incubated for 72 hrs by CCK-8 assay; assay type: functional, cell-based; conditions: BaF3, 72 h
in vitro [6] = conditions: human
Description: Metabolic stability in human assessed as intrinsic clearance

in vitro [7] = conditions: human, liver microsomes; remark: listed apart in the source
Description: Metabolic stability in human liver microsomes assessed as half life pretreated for 5 mins followed by NADPH addition and measured for 45 mins by LC/MS analysis

BaF3 [8] = test: Cytotoxicity against mouse BaF3 cells assessed as inhibition of cell growth incubated for 72 hrs by CCK-8 assay; assay type: functional, cell-based; conditions: BaF3, 72 h
in vitro [9] = conditions: mouse, liver microsomes; remark: listed apart in the source
Description: Metabolic stability in mouse liver microsomes assessed as intrinsic clearance pretreated for 5 mins followed by NADPH addition and measured for 45 mins by LC/MS analysis

in vitro [10] = conditions: mouse
Description: Metabolic stability in mouse assessed as intrinsic clearance

[11] = biological target: Fibroblast growth factor receptor 4 (Mus musculus) (UniProt Q03142); conditions: BaF3, dose 50-400 nM, time 4.0 hrs
[12] = biological target: Fibroblast growth factor receptor 2 (Homo sapiens, UniProt P21802)
Description: Inhibition of FGFR2 (unknown origin) using TK as substrate incubated for 1 hr in presence of biotin/ATP by HTRF assay

[13] = biological target: Fibroblast growth factor receptor 4 (Mus musculus) (UniProt Q03142); conditions: BaF3, dose 50-400 nM, time 4.0 hrs; remark: listed apart in the source
[14] = biological target: Fibroblast growth factor receptor 4 (Mus musculus) (UniProt Q03142); conditions: BaF3, dose 50-400 nM, time 4.0 hrs; remark: listed apart in the source
[15] = biological target: Fibroblast growth factor receptor 3 (Homo sapiens, UniProt P22607)
Description: Inhibition of FGFR3 (unknown origin) using TK as substrate incubated for 1 hr in presence of biotin/ATP by HTRF assay

[16] = biological target: Janus Kinase (JAK) (Homo sapiens) (UniProt P52333+P23458+O60674+P29597); conditions: dose 500.0 nM
Description: Inhibition of JAK (unknown origin) at 500 nM

Chain of Fibroblast growth factor receptor 4 (Mus musculus) (Q03142 17-799 limits assumed): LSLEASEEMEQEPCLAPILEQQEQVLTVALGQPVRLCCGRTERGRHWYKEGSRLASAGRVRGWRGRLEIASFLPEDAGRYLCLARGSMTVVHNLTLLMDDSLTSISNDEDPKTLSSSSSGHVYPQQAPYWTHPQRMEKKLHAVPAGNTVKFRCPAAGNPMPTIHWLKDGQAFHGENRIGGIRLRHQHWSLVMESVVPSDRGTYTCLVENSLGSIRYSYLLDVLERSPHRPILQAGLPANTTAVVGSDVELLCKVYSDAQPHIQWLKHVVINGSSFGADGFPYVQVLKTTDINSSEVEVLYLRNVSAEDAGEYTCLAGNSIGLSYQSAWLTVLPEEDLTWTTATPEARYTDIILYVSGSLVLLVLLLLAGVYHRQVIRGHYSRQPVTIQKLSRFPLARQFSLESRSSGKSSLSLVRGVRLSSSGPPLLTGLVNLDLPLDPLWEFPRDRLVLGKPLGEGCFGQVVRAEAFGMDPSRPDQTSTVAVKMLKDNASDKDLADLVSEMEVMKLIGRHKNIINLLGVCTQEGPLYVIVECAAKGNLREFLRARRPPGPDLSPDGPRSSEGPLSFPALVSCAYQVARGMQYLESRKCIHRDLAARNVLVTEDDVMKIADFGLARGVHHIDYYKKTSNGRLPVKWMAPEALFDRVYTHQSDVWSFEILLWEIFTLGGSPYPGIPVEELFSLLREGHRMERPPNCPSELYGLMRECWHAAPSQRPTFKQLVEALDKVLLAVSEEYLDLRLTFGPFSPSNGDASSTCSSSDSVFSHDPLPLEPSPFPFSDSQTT
Chain of Fibroblast growth factor receptor 4 (P22455 whole entry): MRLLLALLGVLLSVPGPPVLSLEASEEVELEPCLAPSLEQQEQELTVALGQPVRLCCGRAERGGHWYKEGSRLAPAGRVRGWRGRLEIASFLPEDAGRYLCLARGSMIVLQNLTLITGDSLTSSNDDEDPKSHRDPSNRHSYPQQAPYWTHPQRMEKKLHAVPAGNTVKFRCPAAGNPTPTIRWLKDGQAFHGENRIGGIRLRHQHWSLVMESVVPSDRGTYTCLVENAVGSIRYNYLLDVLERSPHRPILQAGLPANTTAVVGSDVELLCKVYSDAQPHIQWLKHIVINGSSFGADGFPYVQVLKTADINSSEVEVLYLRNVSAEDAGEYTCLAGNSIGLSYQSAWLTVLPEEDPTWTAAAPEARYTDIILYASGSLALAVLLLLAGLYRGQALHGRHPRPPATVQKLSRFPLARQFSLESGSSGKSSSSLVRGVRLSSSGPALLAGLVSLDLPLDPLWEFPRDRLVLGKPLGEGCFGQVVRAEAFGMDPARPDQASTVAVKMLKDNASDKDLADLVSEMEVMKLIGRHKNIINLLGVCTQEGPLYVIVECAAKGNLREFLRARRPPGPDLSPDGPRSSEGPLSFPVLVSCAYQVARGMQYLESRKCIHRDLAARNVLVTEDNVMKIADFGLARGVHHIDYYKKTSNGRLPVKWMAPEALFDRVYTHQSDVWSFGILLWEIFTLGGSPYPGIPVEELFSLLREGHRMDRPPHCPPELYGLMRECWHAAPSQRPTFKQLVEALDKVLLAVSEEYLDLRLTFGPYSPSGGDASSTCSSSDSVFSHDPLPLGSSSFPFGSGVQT
Chain of Fibroblast growth factor receptor 3 (P22607 whole entry): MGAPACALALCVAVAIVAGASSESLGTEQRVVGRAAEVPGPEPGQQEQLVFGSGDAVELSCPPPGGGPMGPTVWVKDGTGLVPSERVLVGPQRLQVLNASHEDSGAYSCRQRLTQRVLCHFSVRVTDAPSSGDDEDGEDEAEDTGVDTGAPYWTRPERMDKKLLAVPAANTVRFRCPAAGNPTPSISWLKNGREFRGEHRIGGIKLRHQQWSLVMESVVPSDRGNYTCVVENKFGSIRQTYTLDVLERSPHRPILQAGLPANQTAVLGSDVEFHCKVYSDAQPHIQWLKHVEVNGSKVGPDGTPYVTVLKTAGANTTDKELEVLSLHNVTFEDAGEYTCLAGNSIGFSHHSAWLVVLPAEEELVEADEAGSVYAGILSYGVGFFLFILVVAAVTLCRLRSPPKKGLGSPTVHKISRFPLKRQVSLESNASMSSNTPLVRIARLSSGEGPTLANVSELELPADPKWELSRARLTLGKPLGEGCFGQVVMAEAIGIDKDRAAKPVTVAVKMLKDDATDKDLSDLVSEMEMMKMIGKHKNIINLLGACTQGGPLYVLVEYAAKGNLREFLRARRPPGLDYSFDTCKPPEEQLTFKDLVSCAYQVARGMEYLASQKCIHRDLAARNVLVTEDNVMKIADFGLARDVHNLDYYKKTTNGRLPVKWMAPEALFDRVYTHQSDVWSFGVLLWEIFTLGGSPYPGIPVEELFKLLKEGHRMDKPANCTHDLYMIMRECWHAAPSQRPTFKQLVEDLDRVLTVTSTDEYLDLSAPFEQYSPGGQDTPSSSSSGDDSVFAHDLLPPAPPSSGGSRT
Chain of Fibroblast growth factor receptor 2 (P21802 whole entry): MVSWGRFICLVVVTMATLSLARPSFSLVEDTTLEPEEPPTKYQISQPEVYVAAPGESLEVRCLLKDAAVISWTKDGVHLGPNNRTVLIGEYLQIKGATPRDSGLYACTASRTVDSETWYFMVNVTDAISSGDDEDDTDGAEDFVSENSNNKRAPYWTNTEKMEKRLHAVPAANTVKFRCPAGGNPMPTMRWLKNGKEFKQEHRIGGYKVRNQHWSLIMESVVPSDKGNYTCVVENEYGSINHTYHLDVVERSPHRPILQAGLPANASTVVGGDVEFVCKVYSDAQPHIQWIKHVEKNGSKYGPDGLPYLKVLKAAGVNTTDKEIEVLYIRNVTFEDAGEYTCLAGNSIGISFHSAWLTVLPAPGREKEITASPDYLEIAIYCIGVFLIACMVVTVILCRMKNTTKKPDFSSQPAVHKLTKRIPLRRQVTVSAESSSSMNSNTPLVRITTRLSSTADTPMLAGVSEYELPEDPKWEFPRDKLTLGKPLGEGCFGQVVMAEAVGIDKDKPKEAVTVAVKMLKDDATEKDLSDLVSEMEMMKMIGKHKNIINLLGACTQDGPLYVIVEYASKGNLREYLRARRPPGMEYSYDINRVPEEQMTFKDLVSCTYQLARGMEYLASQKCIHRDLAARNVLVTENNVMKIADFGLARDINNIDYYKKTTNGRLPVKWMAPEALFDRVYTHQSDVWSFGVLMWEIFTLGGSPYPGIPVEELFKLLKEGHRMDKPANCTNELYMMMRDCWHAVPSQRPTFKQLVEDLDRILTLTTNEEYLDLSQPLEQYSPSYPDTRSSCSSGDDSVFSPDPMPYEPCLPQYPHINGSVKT

SMILES: CN1CCN(c2ccc(Nc3ncc4ccn(S(=O)(=O)c5cccnc5)c4n3)cc2)CC1
- IC50 (Huh-7): 383 nM
- IC50 [1]: 33 nM

SMILES: COc1cccc(S(=O)(=O)n2ccc3cnc(Nc4ccc(N5C[C@@H]6C[C@H]5CN6C)cc4)nc32)c1
- IC50 (Huh-7): 166 nM
- microsomal CLint at 50 min (in vitro [2]): 6.4 µL/min/mg
- half-life at 50 min (in vitro [3]): 13.1 min
- IC50 (BaF3 [4]): 126 nM
- IC50 (BaF3 [5]): 632 nM
- CLint scaled (in vitro [6]): 6 mL/min/kg
- half-life at 50 min (in vitro [7]): 224 min
- IC50 (BaF3 [8]): > 2000 nM
- IC50 [1]: 47.5 nM
- microsomal CLint at 50 min (in vitro [9]): 106 µL/min/mg
- CLint scaled (in vitro [10]): 416 mL/min/kg

SMILES: CN1CCN(c2ccc(Nc3ncc4ccn(S(=O)(=O)c5ccccc5)c4n3)cc2)CC1
- IC50 [1]: 74.7 nM

- IC50 [1]: 346 nM
SMILES: COc1cccc(S(C)(=O)=Nc2cc(Nc3ccc(N4CCOCC4)cc3)ncc2C#N)c1 (stereo not given)

SMILES: COc1cccc(S(=O)(=O)n2ccc3cnc(Nc4ccc(N5CCN(C)CC5)cc4)nc32)c1OC
- IC50 [1]: 1340 nM

SMILES: COc1cccc(S(=O)(=O)Nc2cc(Nc3ccc(N4CCOCC4)cc3)ncc2C#N)c1
- IC50 [1]: > 10000 nM

- IC50 [1]: 114 nM
SMILES: COc1cccc(S(=O)(=O)n2ccc3cnc(Nc4ccc(N5CCOCC5)cc4)nc32)c1

SMILES: CN1CCN(c2ccc(Nc3ncc4ccn(S(=O)(=O)c5cccc(F)c5)c4n3)cc2)CC1
- IC50 [1]: 60.5 nM

- IC50 [1]: 1970 nM
SMILES: COc1cccc(S(=O)(=O)c2c[nH]c3cnc(Nc4ccc(N5CCOCC5)cc4)nc23)c1

- IC50 [1]: 4770 nM
SMILES: COc1cccc(S(=O)(=O)c2cnc3cnc(Nc4ccc(N5CCOCC5)cc4)cn23)c1

- IC50 [1]: 198 nM
SMILES: COc1cccc(S(=O)(=O)n2ccc3cnc(Nc4ccc(N5CCOCC5)cc4)cc32)c1

SMILES: COc1ccc(Cl)c(S(=O)(=O)n2ccc3cnc(Nc4ccc(N5CCN(C)CC5)cc4)nc32)c1
- IC50 (Huh-7): 298 nM
- IC50 [1]: 29 nM

- IC50 (Huh-7): 449 nM
- IC50 [1]: 112 nM
SMILES: COc1cccc(S(=O)(=O)n2ccc3cnc(Nc4ccc(C(=O)N5CCN(C)CC5)cc4)nc32)c1

SMILES: COc1cccc(S(=O)(=O)n2ccc3cnc(Nc4ccc(N5CCN(C)CC5)cc4)nc32)c1
- IC50 (Huh-7): 131 nM
- microsomal CLint at 50 min (in vitro [2]): 35.5 µL/min/mg
- half-life at 50 min (in vitro [3]): 4.2 min
- IC50 (BaF3 [4]): 71.8 nM
- IC50 (BaF3 [5]): 534 nM
- CLint scaled (in vitro [6]): 32 mL/min/kg
- half-life at 50 min (in vitro [7]): 39 min
- IC50 (BaF3 [8]): > 2000 nM
- IC50 [1]: 10.4 nM
- microsomal CLint at 50 min (in vitro [9]): 165 µL/min/mg
- CLint scaled (in vitro [10]): 654 mL/min/kg

- IC50 (Huh-7): 301 nM
- IC50 [1]: 41.8 nM
SMILES: COc1cccc(S(=O)(=O)n2ccc3cnc(Nc4ccc(N5CCC(N(C)C)C5)cc4)nc32)c1 (stereo not given)

SMILES: CN1CCN(c2ccc(Nc3ncc4ccn(S(=O)(=O)c5ccccc5OC(F)(F)F)c4n3)cc2)CC1
- IC50 (Huh-7): 444 nM
- IC50 [1]: 36.8 nM

SMILES: CN1CCN(c2ccc(Nc3ncc4ccn(S(=O)(=O)c5cc(F)cc(F)c5)c4n3)cc2)CC1
- IC50 (Huh-7): 191 nM
- microsomal CLint at 50 min (in vitro [2]): 54.8 µL/min/mg
- half-life at 50 min (in vitro [3]): 4.4 min
- IC50 (BaF3 [4]): 64 nM
- IC50 (BaF3 [5]): 376 nM
- CLint scaled (in vitro [6]): 49.4 mL/min/kg
- half-life at 50 min (in vitro [7]): 35.2 min
- IC50 (BaF3 [8]): > 2000 nM
- IC50 [1]: 12.7 nM
- microsomal CLint at 50 min (in vitro [9]): 319 µL/min/mg
- CLint scaled (in vitro [10]): 1250 mL/min/kg

SMILES: CN1CCN(c2ccc(Nc3ncc4ccn(S(=O)(=O)c5c(Cl)cccc5Cl)c4n3)cc2)CC1
- IC50 (Huh-7): 377 nM
- IC50 [1]: 55 nM

- IC50 (Huh-7): 811 nM
- IC50 [1]: 17.1 nM
SMILES: COc1cccc(S(=O)(=O)n2ccc3cnc(Nc4ccc(N(C)CCN(C)C)cc4)nc32)c1

SMILES: COc1ccc(S(=O)(=O)n2ccc3cnc(Nc4ccc(N5CCN(C)CC5)cc4)nc32)cc1
- IC50 [1]: 893 nM

SMILES: CN1CCN(c2ccc(Nc3ncc4ccn(S(=O)(=O)c5ccccc5Cl)c4n3)cc2)CC1
- IC50 (Huh-7): 451 nM
- IC50 [1]: 33.6 nM

SMILES: COc1ccc(OC)c(S(=O)(=O)n2ccc3cnc(Nc4ccc(N5CCN(C)CC5)cc4)nc32)c1
- IC50 (Huh-7): 244 nM
- microsomal CLint at 50 min (in vitro [2]): 40.5 µL/min/mg
- half-life at 50 min (in vitro [3]): 4.9 min
- IC50 (BaF3 [4]): 58.3 nM
- IC50 (BaF3 [5]): 405 nM
- CLint scaled (in vitro [6]): 36.5 mL/min/kg
- half-life at 50 min (in vitro [7]): 47.7 min
- IC50 (BaF3 [8]): > 2000 nM
- IC50 [1]: 8.7 nM
- microsomal CLint at 50 min (in vitro [9]): 283 µL/min/mg
- CLint scaled (in vitro [10]): 1110 mL/min/kg

SMILES: COc1cccc(S(=O)(=O)n2ccc3cnc(Nc4ccc(N5C[C@@H](C)N[C@@H](C)C5)cc4)nc32)c1
- inhibition [11]: Dose-Dependent Effect
- IC50 [12]: 46.7 nM
- inhibition [13]: Dose-Dependent Effect
- inhibition [14]: Dose-Dependent Effect
- IC50 [1]: 17.1 nM
- IC50 [15]: 29.6 nM
- inhibition [16]: Active

SMILES: CN1CCN(c2ccc(Nc3ncc4ccn(S(=O)(=O)c5cccc(OC(F)(F)F)c5)c4n3)cc2)CC1
- IC50 [1]: 703 nM

SMILES: CN1CCN(c2ccc(Nc3ncc4ccn(S(=O)(=O)C5CCCCC5)c4n3)cc2)CC1
- IC50 [1]: 615 nM

- IC50 (Huh-7): 45.9 nM
- IC50 [1]: 5.3 nM
SMILES: C=CC(=O)N[C@H]1CCOC[C@H]1Nc1ncc2cc(-c3c(Cl)c(OC)cc(OC)c3Cl)ccc2n1 [FISOGATINIB]

SMILES: COc1ccccc1S(=O)(=O)n1ccc2cnc(Nc3ccc(N4CCN(C)CC4)cc3)nc21
- IC50 (Huh-7): 240 nM
- IC50 [1]: 16.1 nM

SMILES: CN1CCN(c2ccc(Nc3ncc4ccn(S(=O)(=O)c5ccn(C)n5)c4n3)cc2)CC1
- IC50 [1]: 127 nM

SMILES: COc1cccc(S(=O)(=O)n2ccc3cnc(Nc4ccc(N5CCC(N(C)C)CC5)cc4)nc32)c1
- IC50 (Huh-7): 310 nM
- IC50 [1]: 13.9 nM

SMILES: CN1CCN(c2ccc(Nc3ncc4ccn(S(=O)(=O)c5cccc6c5OCO6)c4n3)cc2)CC1
- IC50 (Huh-7): 534 nM
- IC50 [1]: 29.5 nM

- IC50 [1]: 132 nM
SMILES: COc1cccc(S(=O)(=O)n2ccc3cnc(Nc4ccc(CN5CCN(C)CC5)cc4)nc32)c1

- IC50 [1]: 2190 nM
SMILES: COc1cc(OC)cc(S(C)(=O)=Nc2cc(Nc3ccc(N4CCOCC4)cc3)ncc2C#N)c1 (stereo not given)

Source: ChEMBL document CHEMBL5236620, “Discovery of 2-Amino-7-sulfonyl-7H-pyrrolo[2,3-d]pyrimidine Derivatives as Potent Reversible FGFR Inhibitors with Gatekeeper Mutation Tolerance: Design, Synthesis, and Biological Evaluation” (J Med Chem, 2022)
